We go through four compounds from publication PMC8582298 (ChemMedChem, 2020).

The target of experiment [1] is T1, PP1 (Oryctolagus cuniculus, UniProt P62139). Conditions: literature values; cited from earlier work.
For experiment [2], the target named is T1, PP1. Nature of the experiment: Malachite green assay, IC50 determination, PP1. In kind it is biochemical. Conditions: for PP1 versus PP2A preference (in words): based on IC50 values; for IC50 PP1: malachite green assay, phosphopeptide K-R-pT-I-R-R 40 μM, 30 °C, three trials.
Another experiment has as its target PP2A (Homo sapiens, UniProt P67775). Nature of the experiment: Malachite green assay, IC50 determination, PP2A. It counts as biochemical.

For orientation: IC50 means the concentration needed to halve the response being measured. A high value points to weaker potency in that assay.

PP2A, sequence (P67775 whole entry): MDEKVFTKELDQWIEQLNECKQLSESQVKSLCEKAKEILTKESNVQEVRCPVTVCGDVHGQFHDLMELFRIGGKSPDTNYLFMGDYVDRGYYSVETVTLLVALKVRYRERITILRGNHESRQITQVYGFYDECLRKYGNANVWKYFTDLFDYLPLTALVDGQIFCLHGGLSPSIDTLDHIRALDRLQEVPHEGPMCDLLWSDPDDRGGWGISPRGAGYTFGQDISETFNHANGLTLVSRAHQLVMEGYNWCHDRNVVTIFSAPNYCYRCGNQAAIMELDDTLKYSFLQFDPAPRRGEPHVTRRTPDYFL
T1 sequence (P62139 whole entry): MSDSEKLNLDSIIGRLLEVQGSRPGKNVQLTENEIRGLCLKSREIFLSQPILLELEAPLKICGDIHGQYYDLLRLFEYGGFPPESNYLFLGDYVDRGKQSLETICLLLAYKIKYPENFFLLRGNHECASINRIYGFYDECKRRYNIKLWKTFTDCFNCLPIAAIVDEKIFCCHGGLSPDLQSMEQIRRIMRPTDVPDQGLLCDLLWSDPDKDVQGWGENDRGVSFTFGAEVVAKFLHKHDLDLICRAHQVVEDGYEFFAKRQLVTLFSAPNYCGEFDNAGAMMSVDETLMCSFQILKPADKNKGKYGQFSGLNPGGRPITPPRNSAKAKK

`CO[C@H]([C@H](O)CC(=O)[C@@H](C)[C@@H](O)CC[C@@H](C)[C@@H]1O[C@]2(CC[C@@H](C)[C@H](CC[C@H](C)C(C)=O)O2)CC[C@@H]1C)[C@H](OC(=O)C[C@@H](O)C1=C(C)C(=O)OC1=O)C(C)C` [TTM, tautomycin]: the “Selectivity for PP1 over PP2A” value on PP1 [1] was “approximately 5 fold”.

For `C=C/C(=C/C(=O)C[C@H](C)C[C@@H](C)CC[C@H](O)[C@H](C)C(=O)C[C@@H](O)[C@H](C)[C@@H](C)OC(=O)C[C@@H](O)C1=C(C)C(=O)OC1=O)CC` [TTN, tautomycetin, reference compound], the IC50 against PP1 [2] was 0.011 ± 0.001 µM; against PP2A it was 0.49 µM. Further, the “Selectivity for PP1 over PP2A” value at PP1 [1] is around 140 fold.

Turning to `CC1=C([C@H](O)CC(=O)O[C@H](C)[C@@H](C)[C@H](O)CC(=O)[C@@H](C)[C@@H](O)CCCCCOC(=O)c2ccccc2)C(=O)OC1=O` [1d, (6S,7S,10R,11S,12R)-6,10-dihydroxy-12-(((R)-3-hydroxy-3-(4-methyl-2,5-dioxo-2,5-dihydrofuran-3-yl)propanoyl)oxy)-7,11-dimethyl-8-oxotridecyl benzoate], on PP1 [2], half-maximal inhibition (IC50) was put at 0.034 ± 0.002 µM, the “PP1 versus PP2A preference (in words)” value is listed as “PP1 selective” and the “IC50 PP1” value is given as “nanomolar range”. Moreover, the IC50 against PP2A was 0.26 µM.

Consider `CC1=C([C@H](O)CC(=O)O[C@H](C)[C@@H](C)[C@H](O)CC(=O)[C@@H](C)[C@@H](O)CCCCCOC(=O)c2ccc(-c3ccccc3)cc2)C(=O)OC1=O` [1e, (6S,7S,10R,11S,12R)-6,10-dihydroxy-12-(((R)-3-hydroxy-3-(4-methyl-2,5-dioxo-2,5-dihydrofuran-3-yl)propanoyl)oxy)-7,11-dimethyl-8-oxotridecyl [1,1’-biphenyl]-4-carboxylate], for which, at PP1 [2], the IC50 turned out to be 1.5 ± 0.15 µM, the “PP1 versus PP2A preference (in words)” value is on record as “PP1 selective” and the “IC50 PP1” value is “nanomolar range”. The compound also showed an IC50 against PP2A of 6.8 µM.
